Data reported in patent US20230085307A1, “PYRIDAZINONE COMPOUND AND HERBICIDE” (NISSAN CHEMICAL CORPORATION, priority 2019, published 2023).

Tests used:
[1] = tested on: green foxtail; assay: Test Example 5: herbicidal effect by foliage application, plastic box (Table 20, symbol G); type: in vivo, green foxtail (Setaria viridis); settings: foliage application
Summary of the method: (§1)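 Plants were sown into sterilized diluvial soil under about 1.5 cm cover and kept in a greenhouse at 25° C. to 30° C. Fourteen days on, foliage received an even spray of the diluted emulsion. Herbicidal or crop effect was judged three weeks afterwards.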

[2] = tested on: lambsquarters; assay: Test Example 5: herbicidal effect by foliage application, plastic box (Table 20, symbol O); type: in vivo, lambsquarters (Chenopodium album); settings: foliage application
Summary of the method: as §1

[3] = tested on: persian speedwell; assay: Test Example 5: herbicidal effect by foliage application, plastic box (Table 20, symbol R); type: in vivo, Persian speedwell (Veronica persica); settings: foliage application
Summary of the method: as §1

[4] = tested on: chickweed; assay: Test Example 5: herbicidal effect by foliage application, plastic box (Table 20, symbol P); type: in vivo, common chickweed (Stellaria media); settings: foliage application
Summary of the method: as §1

[5] = tested on: Chinese sprangletop; assay: Test Example 3: herbicidal effect by foliage application, Wagner pot (Table 18, symbol D); type: in vivo, chinese sprangletop (Leptochloa chinensis); settings: for herbicidal effect on D (Chinese sprangletop), rating 0-5: 320 g/ha; for herbicidal effect on D: Chinese sprangletop: amount of applied herbicide 320 g/ha
Summary of the method: (§2)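 Plants were sown in alluvial soil held under 0.1–0.5 cm standing water and grown 14 days in a greenhouse at 25–30 °C. An emulsifiable formulation, water-diluted to the set dose, was then sprayed onto the foliage, and effects were scored three weeks later using previously defined criteria.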

[6] = tested on: Italian ryegrass; assay: Test Example 5: herbicidal effect by foliage application, plastic box (Table 20, symbol K); type: in vivo, Italian ryegrass (Lolium multiflorum); settings: foliage application
Summary of the method: as §1

[7] = tested on: windgrass; assay: Test Example 5: herbicidal effect by foliage application, plastic box (Table 20, symbol L); type: in vivo, windgrass (Apera spica-venti); settings: foliage application
Summary of the method: as §1

[8] = tested on: velvetleaf; assay: Test Example 5: herbicidal effect by foliage application, plastic box (Table 20, symbol M); type: in vivo, velvetleaf (Abutilon theophrasti); settings: foliage application
Summary of the method: as §1

[9] = tested on: rice flat sedge; assay: Test Example 3: herbicidal effect by foliage application, Wagner pot (Table 18, symbol E); type: in vivo, rice flat sedge (Cyperus iria); settings: for herbicidal effect on E (rice flat sedge), rating 0-5: 320 g/ha; for herbicidal effect on E: rice flat sedge: amount of applied herbicide 320 g/ha
Summary of the method: as §2

[10] = tested on: blackgrass; assay: Test Example 5: herbicidal effect by foliage application, plastic box (Table 20, symbol J); type: in vivo, blackgrass (Alopecurus myosuroides); settings: foliage application
Summary of the method: as §1

[11] = tested on: southern crabgrass; assay: Test Example 5: herbicidal effect by foliage application, plastic box (Table 20, symbol F); type: in vivo, southern crabgrass (Digitaria ciliaris); settings: foliage application
Summary of the method: as §1

[12] = tested on: barnyard grass; assay: Test Example 5: herbicidal effect by foliage application, plastic box (Table 20, symbol H); type: in vivo, barnyard grass (Echinochloa crus-galli); settings: foliage application
Summary of the method: as §1

[13] = tested on: barnyard grass; assay: Test Example 3: herbicidal effect by foliage application, Wagner pot (Table 18, symbol H); type: in vivo, barnyard grass (Echinochloa crus-galli); settings: for herbicidal effect on H (barnyard grass), rating 0-5: 320 g/ha; for herbicidal effect on H: barnyard grass: amount of applied herbicide 320 g/ha
Summary of the method: as §2

[14] = tested on: redroot pigweed; assay: Test Example 5: herbicidal effect by foliage application, plastic box (Table 20, symbol N); type: in vivo, redroot pigweed (Amaranthus retroflexus); settings: foliage application
Summary of the method: as §1

[15] = tested on: wild oat; assay: Test Example 5: herbicidal effect by foliage application, plastic box (Table 20, symbol I); type: in vivo, wild oat (Avena fatua); settings: foliage application
Summary of the method: as §1

[16] = 320 g/ha, three weeks after application
[17] = AAH 320 g/ha, three weeks after application
[18] = 320 g/ha, evaluated three weeks after application
[19] = AAH 320 g/ha, evaluated three weeks after application

CCCC(=O)Oc1c(C)nn(C)c(=O)c1-c1c(-c2ccccc2SC)sc2ccccc12 [1-035]
herbicidal effect grade, G: green foxtail [1, 16]: 0 (Herbicidal rate of 5% or less (almost no effect))
herbicidal effect grade, O: lambsquarters [2, 16]: 0 (Herbicidal rate of 5% or less (almost no effect))
herbicidal effect grade, R: persian speedwell [3, 16]: 0 (Herbicidal rate of 5% or less (almost no effect))
herbicidal effect grade, P: chickweed [4, 16]: 1 (Herbicidal rate of 5% or more and less than 20%)
herbicidal effect on D (Chinese sprangletop), rating 0-5 [5]: 0 (Herbicidal rate of 5% or less (almost no effect))
herbicidal effect grade, K: Italian ryegrass [6, 16]: 0 (Herbicidal rate of 5% or less (almost no effect))
herbicidal effect grade, L: windgrass [7, 16]: 0 (Herbicidal rate of 5% or less (almost no effect))
herbicidal effect grade, M: velvetleaf [8, 16]: 0 (Herbicidal rate of 5% or less (almost no effect))
herbicidal effect on E (rice flat sedge), rating 0-5 [9]: 4 (Herbicidal rate of 70% or more and less than 90%)
herbicidal effect grade, J: blackgrass [10, 16]: 0 (Herbicidal rate of 5% or less (almost no effect))
herbicidal effect grade, F: southern crabgrass [11, 16]: 0 (Herbicidal rate of 5% or less (almost no effect))
herbicidal effect grade, H: barnyard grass [12, 16]: 0 (Herbicidal rate of 5% or less (almost no effect))
herbicidal effect on H (barnyard grass), rating 0-5 [13]: 3 (Herbicidal rate of 40% or more and less than 70%)
herbicidal effect grade, N: redroot pigweed [14, 16]: 0 (Herbicidal rate of 5% or less (almost no effect))
herbicidal effect grade, I: wild oat [15, 16]: 3 (Herbicidal rate of 40% or more and less than 70%)

COc1nn(C)c(=O)c(-c2c(-c3cccc(OC(F)(F)F)c3)sc3ccccc23)c1O [1-160]
G: green foxtail, herbicidal effect [1, 17]: 1 (Herbicidal rate of 5% or more and less than 20%)
O: lambsquarters, herbicidal effect [2, 17]: 1 (Herbicidal rate of 5% or more and less than 20%)
R: persian speedwell, herbicidal effect [3, 17]: 0 (Herbicidal rate of 5% or less (almost no effect))
P: chickweed, herbicidal effect [4, 17]: 4 (Herbicidal rate of 70% or more and less than 90%)
herbicidal effect on D (Chinese sprangletop), rating 0-5 [5]: 1 (Herbicidal rate of 5% or more and less than 20%)
K: Italian ryegrass, herbicidal effect [6, 17]: 1 (Herbicidal rate of 5% or more and less than 20%)
L: windgrass, herbicidal effect [7, 17]: 0 (Herbicidal rate of 5% or less (almost no effect))
M: velvetleaf, herbicidal effect [8, 17]: 1 (Herbicidal rate of 5% or more and less than 20%)
herbicidal effect on E (rice flat sedge), rating 0-5 [9]: 4 (Herbicidal rate of 70% or more and less than 90%)
J: blackgrass, herbicidal effect [10, 17]: 0 (Herbicidal rate of 5% or less (almost no effect))
F: southern crabgrass, herbicidal effect [11, 17]: 0 (Herbicidal rate of 5% or less (almost no effect))
H: barnyard grass, herbicidal effect [12, 17]: 1 (Herbicidal rate of 5% or more and less than 20%)
herbicidal effect on H (barnyard grass), rating 0-5 [13]: 0 (Herbicidal rate of 5% or less (almost no effect))
N: redroot pigweed, herbicidal effect [14, 17]: 5 (Herbicidal rate of 90% or more (almost completely withered))
I: wild oat, herbicidal effect [15, 17]: 0 (Herbicidal rate of 5% or less (almost no effect))

CCCC(=O)Oc1c(OC)nn(C)c(=O)c1-c1c(-c2cccc(OC(F)(F)F)c2)sc2ccccc12 [1-161]
G: green foxtail, herbicidal effect [1, 17]: 0 (Herbicidal rate of 5% or less (almost no effect))
O: lambsquarters, herbicidal effect [2, 17]: 0 (Herbicidal rate of 5% or less (almost no effect))
R: persian speedwell, herbicidal effect [3, 17]: 0 (Herbicidal rate of 5% or less (almost no effect))
P: chickweed, herbicidal effect [4, 17]: 0 (Herbicidal rate of 5% or less (almost no effect))
herbicidal effect on D (Chinese sprangletop), rating 0-5 [5]: 0 (Herbicidal rate of 5% or less (almost no effect))
K: Italian ryegrass, herbicidal effect [6, 17]: 0 (Herbicidal rate of 5% or less (almost no effect))
L: windgrass, herbicidal effect [7, 17]: 0 (Herbicidal rate of 5% or less (almost no effect))
M: velvetleaf, herbicidal effect [8, 17]: 1 (Herbicidal rate of 5% or more and less than 20%)
herbicidal effect on E (rice flat sedge), rating 0-5 [9]: 3 (Herbicidal rate of 40% or more and less than 70%)
J: blackgrass, herbicidal effect [10, 17]: 0 (Herbicidal rate of 5% or less (almost no effect))
F: southern crabgrass, herbicidal effect [11, 17]: 0 (Herbicidal rate of 5% or less (almost no effect))
H: barnyard grass, herbicidal effect [12, 17]: 0 (Herbicidal rate of 5% or less (almost no effect))
herbicidal effect on H (barnyard grass), rating 0-5 [13]: 1 (Herbicidal rate of 5% or more and less than 20%)
N: redroot pigweed, herbicidal effect [14, 17]: 3 (Herbicidal rate of 40% or more and less than 70%)
I: wild oat, herbicidal effect [15, 17]: 0 (Herbicidal rate of 5% or less (almost no effect))

CCCC(=O)Oc1c(C)nn(C)c(=O)c1-c1c(-c2ccc(F)cc2OC)sc2ccc(-c3ccc(OC(C)C)cc3)cc12 [2-169]
herbicidal effect on G: green foxtail (criteria 0-5) [1, 18]: 0 (Herbicidal rate of 5% or less (almost no effect))
herbicidal effect on O: lambsquarters (criteria 0-5) [2, 18]: 3 (Herbicidal rate of 40% or more and less than 70%)
herbicidal effect on R: persian speedwell (criteria 0-5) [3, 18]: 0 (Herbicidal rate of 5% or less (almost no effect))
herbicidal effect on P: chickweed (criteria 0-5) [4, 18]: 0 (Herbicidal rate of 5% or less (almost no effect))
herbicidal effect on K: Italian ryegrass (criteria 0-5) [6, 18]: 0 (Herbicidal rate of 5% or less (almost no effect))
herbicidal effect on L: windgrass (criteria 0-5) [7, 18]: 0 (Herbicidal rate of 5% or less (almost no effect))
herbicidal effect on M: velvetleaf (criteria 0-5) [8, 18]: 0 (Herbicidal rate of 5% or less (almost no effect))
herbicidal effect on J: blackgrass (criteria 0-5) [10, 18]: 0 (Herbicidal rate of 5% or less (almost no effect))
herbicidal effect on F: southern crabgrass (criteria 0-5) [11, 18]: 0 (Herbicidal rate of 5% or less (almost no effect))
herbicidal effect on H: barnyard grass (criteria 0-5) [12, 18]: 0 (Herbicidal rate of 5% or less (almost no effect))
herbicidal effect on N: redroot pigweed (criteria 0-5) [14, 18]: 2 (Herbicidal rate of 20% or more and less than 40%)
herbicidal effect on I: wild oat (criteria 0-5) [15, 18]: 0 (Herbicidal rate of 5% or less (almost no effect))

Cc1nn(C)c(=O)c(-c2c(-c3cccc(OC(F)F)c3)sc3ccc(F)cc23)c1O [2-234]
herbicidal effect on G: green foxtail (criteria 0-5) [1, 18]: 0 (Herbicidal rate of 5% or less (almost no effect))
herbicidal effect on O: lambsquarters (criteria 0-5) [2, 18]: 2 (Herbicidal rate of 20% or more and less than 40%)
herbicidal effect on R: persian speedwell (criteria 0-5) [3, 18]: 5 (Herbicidal rate of 90% or more (almost completely withered))
herbicidal effect on P: chickweed (criteria 0-5) [4, 18]: 5 (Herbicidal rate of 90% or more (almost completely withered))
herbicidal effect on D: Chinese sprangletop [5]: 0 (Herbicidal rate of 5% or less (almost no effect))
herbicidal effect on K: Italian ryegrass (criteria 0-5) [6, 18]: 0 (Herbicidal rate of 5% or less (almost no effect))
herbicidal effect on L: windgrass (criteria 0-5) [7, 18]: 0 (Herbicidal rate of 5% or less (almost no effect))
herbicidal effect on M: velvetleaf (criteria 0-5) [8, 18]: 0 (Herbicidal rate of 5% or less (almost no effect))
herbicidal effect on E: rice flat sedge [9]: 0 (Herbicidal rate of 5% or less (almost no effect))
herbicidal effect on J: blackgrass (criteria 0-5) [10, 18]: 0 (Herbicidal rate of 5% or less (almost no effect))
herbicidal effect on F: southern crabgrass (criteria 0-5) [11, 18]: 0 (Herbicidal rate of 5% or less (almost no effect))
herbicidal effect on H: barnyard grass (criteria 0-5) [12, 18]: 0 (Herbicidal rate of 5% or less (almost no effect))
herbicidal effect on H: barnyard grass [13]: 3 (Herbicidal rate of 40% or more and less than 70%)
herbicidal effect on N: redroot pigweed (criteria 0-5) [14, 18]: 4 (Herbicidal rate of 70% or more and less than 90%)
herbicidal effect on I: wild oat (criteria 0-5) [15, 18]: 0 (Herbicidal rate of 5% or less (almost no effect))

CC(=O)COc1c(C)nn(C)c(=O)c1-c1c(-c2ccc(OC(F)F)cc2)sc2ccc(F)cc12 [2-304]
G: green foxtail, herbicidal effect (criteria 0-5) [1, 19]: 0 (Herbicidal rate of 5% or less (almost no effect))
O: lambsquarters, herbicidal effect (criteria 0-5) [2, 19]: 3 (Herbicidal rate of 40% or more and less than 70%)
R: persian speedwell, herbicidal effect (criteria 0-5) [3, 19]: 5 (Herbicidal rate of 90% or more (almost completely withered))
P: chickweed, herbicidal effect (criteria 0-5) [4, 19]: 5 (Herbicidal rate of 90% or more (almost completely withered))
herbicidal effect on D: Chinese sprangletop [5]: 3 (Herbicidal rate of 40% or more and less than 70%)
K: Italian ryegrass, herbicidal effect (criteria 0-5) [6, 19]: 0 (Herbicidal rate of 5% or less (almost no effect))
L: windgrass, herbicidal effect (criteria 0-5) [7, 19]: 0 (Herbicidal rate of 5% or less (almost no effect))
M: velvetleaf, herbicidal effect (criteria 0-5) [8, 19]: 0 (Herbicidal rate of 5% or less (almost no effect))
herbicidal effect on E: rice flat sedge [9]: 3 (Herbicidal rate of 40% or more and less than 70%)
J: blackgrass, herbicidal effect (criteria 0-5) [10, 19]: 0 (Herbicidal rate of 5% or less (almost no effect))
F: southern crabgrass, herbicidal effect (criteria 0-5) [11, 19]: 0 (Herbicidal rate of 5% or less (almost no effect))
H: barnyard grass, herbicidal effect (criteria 0-5) [12, 19]: 0 (Herbicidal rate of 5% or less (almost no effect))
herbicidal effect on H: barnyard grass [13]: 3 (Herbicidal rate of 40% or more and less than 70%)
N: redroot pigweed, herbicidal effect (criteria 0-5) [14, 19]: 5 (Herbicidal rate of 90% or more (almost completely withered))
I: wild oat, herbicidal effect (criteria 0-5) [15, 19]: 0 (Herbicidal rate of 5% or less (almost no effect))
